Laboratory results taken from ChEMBL document CHEMBL1201862, “PubChem BioAssay data set” (2004).
Calls of active or inactive are those of the source.

Assays:
[1] = molecular target: T1, Heat shock factor protein 1 (Mus musculus, UniProt P38532); assay: decrease of HSF1-responsive luciferase luminescence – cell-based, NIH3T3, dose retest, confirmation (AID 2382); type: functional;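 note: NIH3T3 fibroblasts with HSF1-driven luciferase reporter stressed by proteasome inhibitor MG132; luminescence from HSF1-driven luciferase expression after 8 hours of MG132 stress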
T1 sequence (P38532 whole entry): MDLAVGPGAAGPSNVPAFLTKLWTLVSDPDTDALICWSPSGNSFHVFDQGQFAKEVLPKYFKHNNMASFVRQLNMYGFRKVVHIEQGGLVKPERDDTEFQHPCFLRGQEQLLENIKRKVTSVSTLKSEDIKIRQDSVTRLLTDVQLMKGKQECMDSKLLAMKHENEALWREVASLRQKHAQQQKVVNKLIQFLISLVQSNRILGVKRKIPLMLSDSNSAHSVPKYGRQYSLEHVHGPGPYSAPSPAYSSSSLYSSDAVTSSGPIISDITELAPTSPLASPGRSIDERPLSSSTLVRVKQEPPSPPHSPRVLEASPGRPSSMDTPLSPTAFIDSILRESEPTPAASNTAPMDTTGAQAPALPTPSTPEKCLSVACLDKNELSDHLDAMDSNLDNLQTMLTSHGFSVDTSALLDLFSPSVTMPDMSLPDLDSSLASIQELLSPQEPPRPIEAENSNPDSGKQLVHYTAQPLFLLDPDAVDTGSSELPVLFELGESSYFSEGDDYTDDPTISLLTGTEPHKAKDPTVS

[2] = Luminescence Cell-Based Dose Retest to Confirm Inhibitors of Cancer Stem Cells. [Related pubchem assays (depositor defined):AID2717, AID2721]; type: functional; conditions: Homo sapiens
[3] = Trypanosoma cruzi growth suppression in host cells – NIH3T3 host cells, beta-gal luminescence, confirmation (AID 2044); type: functional, cell-based;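 note: intracellular parasites grown in NIH/3T3 mouse fibroblasts as host cells; luminescent beta-galactosidase reporter signal from transgenic T. cruzi replicating inside host cells; inhibitors lower the luminescence signal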
[4] = NIH3T3 cell viability loss – ATP luminescence, mouse fibroblasts, counter-screen, dose response (AID 2010); type: functional, cell-based;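 note: cells exposed to compound for about 90 hours before reading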
[5] = molecular target: Cytochrome P450 2C9 (Homo sapiens, UniProt P11712)
[6] = molecular target: Cytochrome P450 2C19 (Homo sapiens, UniProt P33261); assay: Cytochrome panel assay with activity outcomes. Panel member name: p450-cyp2c19 Compounds with AC50 equal or less than 10 uM are considered active; type: functional; conditions: read-out: AC50
[7] = Luminescence Cell-Based Dose Response HTS to Identify Activators of Luciferase Translation or Activity in H4 […] Cells. [Related pubchem assays: 1829 (Project Summary), 1814 (Primary HTS)]; type: functional
[8] = Luminescence Cell-Based Dose Confirmation HTS to Identify Activators of 5'UTR Stem-Loop Driven Alpha-Synuclein mRNA Translation in H4 Neuroglioblastoma Cells. [Related pubchem assays: 1829 (Project Summary), 1814 (Primary HTS)]; type: functional
[9] = test system: Streptococcus sp. 'group A'; assay: Streptococcus pyogenes SK(-)GAS viability under kanamycin – luminescence, BacTiterGlo, confirmation, counter-screen for streptokinase expression inhibitor project, dose response (AID 1900); type: functional, organism-based
[10] = test system: Streptococcus; assay: GAS UMAA2166 growth inhibition – luminescence, BacTiterGlo, counter-screen for streptokinase expression inhibitor project, dose response (AID 1915); type: functional, organism-based;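 note: potency for reduction of bacterial viability or growth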
[11] = molecular target: T2, Streptokinase A (Streptococcus pyogenes serotype M1, UniProt P10520); assay: viability-normalized secreted streptokinase activity reduction – plasminogen activation absorbance, OD405, dose response (AID 1914); type: functional, Streptococcus pyogenes M1 GAS;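 note: secreted streptokinase activity via plasminogen activation per viability signal from cell pellet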
T2 sequence (P10520 whole entry): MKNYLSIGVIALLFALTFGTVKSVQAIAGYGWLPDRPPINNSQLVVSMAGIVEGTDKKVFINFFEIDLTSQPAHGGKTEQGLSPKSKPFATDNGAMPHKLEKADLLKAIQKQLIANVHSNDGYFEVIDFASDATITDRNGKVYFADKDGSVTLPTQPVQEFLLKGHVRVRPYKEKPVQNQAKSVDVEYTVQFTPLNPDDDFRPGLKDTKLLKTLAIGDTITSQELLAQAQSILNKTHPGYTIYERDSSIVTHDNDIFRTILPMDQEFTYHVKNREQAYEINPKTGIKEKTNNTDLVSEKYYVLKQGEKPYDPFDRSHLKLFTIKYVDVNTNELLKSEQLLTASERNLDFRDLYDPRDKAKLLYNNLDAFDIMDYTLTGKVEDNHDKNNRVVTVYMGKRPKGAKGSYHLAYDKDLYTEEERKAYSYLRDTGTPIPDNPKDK

[12] = test system: H4; assay: Luminescence Cell-Based Dose Response HTS to Identify Activators of 5'UTR Stem-Loop Driven Prion Protein mRNA Translation in H4 Neuroglioblastoma Cells. [Related pubchem assays: 1829 (Project Summary), 1814 (Primary HTS)]; type: functional; conditions: Homo sapiens
[13] = molecular target: T3, Cytochrome P450 1A2 (Homo sapiens, UniProt P05177);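 note: PubChem cytochrome P450 panel assay, CYP1A2 panel member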
T3 sequence (P05177 whole entry): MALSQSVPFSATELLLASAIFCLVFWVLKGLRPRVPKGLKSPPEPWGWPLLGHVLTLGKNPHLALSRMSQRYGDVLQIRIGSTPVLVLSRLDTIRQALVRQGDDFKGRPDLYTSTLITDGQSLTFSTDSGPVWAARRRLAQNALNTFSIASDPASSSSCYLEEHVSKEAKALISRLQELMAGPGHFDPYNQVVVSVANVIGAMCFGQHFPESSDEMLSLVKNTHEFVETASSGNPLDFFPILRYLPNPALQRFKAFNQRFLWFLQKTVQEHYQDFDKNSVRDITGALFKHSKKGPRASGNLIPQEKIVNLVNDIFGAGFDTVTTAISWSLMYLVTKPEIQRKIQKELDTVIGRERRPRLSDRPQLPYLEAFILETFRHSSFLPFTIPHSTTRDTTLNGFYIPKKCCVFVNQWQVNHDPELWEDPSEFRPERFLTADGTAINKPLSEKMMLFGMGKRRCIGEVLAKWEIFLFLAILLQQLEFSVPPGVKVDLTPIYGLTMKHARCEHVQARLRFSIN

[14] = molecular target: Polyadenylate-binding protein 1 (Homo sapiens, UniProt P11940); assay: MLLE domain peptide-binding blockers, IC50 – biochemical, fluorescence polarization, FITC-PAM2 peptide, dose response (AID 602259); type: functional; conditions: read-out: IC50_Mean
Sequence of Polyadenylate-binding protein 1 (P11940 whole entry, the tested form may be a part): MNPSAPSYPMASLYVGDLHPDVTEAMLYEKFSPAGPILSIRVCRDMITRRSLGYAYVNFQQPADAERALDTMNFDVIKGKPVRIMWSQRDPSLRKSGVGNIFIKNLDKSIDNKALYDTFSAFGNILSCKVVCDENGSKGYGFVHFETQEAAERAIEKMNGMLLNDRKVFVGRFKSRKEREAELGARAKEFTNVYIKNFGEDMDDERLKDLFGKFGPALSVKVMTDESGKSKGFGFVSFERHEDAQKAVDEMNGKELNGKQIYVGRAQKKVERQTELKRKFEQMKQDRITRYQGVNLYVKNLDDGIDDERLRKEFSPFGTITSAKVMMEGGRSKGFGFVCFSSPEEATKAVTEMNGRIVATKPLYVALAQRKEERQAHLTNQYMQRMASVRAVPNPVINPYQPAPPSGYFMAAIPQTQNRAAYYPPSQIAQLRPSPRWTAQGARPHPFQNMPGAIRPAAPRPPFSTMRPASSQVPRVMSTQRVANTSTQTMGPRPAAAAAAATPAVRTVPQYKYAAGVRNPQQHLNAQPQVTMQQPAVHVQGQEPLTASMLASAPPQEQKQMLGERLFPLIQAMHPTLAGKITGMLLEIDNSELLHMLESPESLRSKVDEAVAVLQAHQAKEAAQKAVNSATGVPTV

Sequence of Cytochrome P450 2C19 (P33261 whole entry): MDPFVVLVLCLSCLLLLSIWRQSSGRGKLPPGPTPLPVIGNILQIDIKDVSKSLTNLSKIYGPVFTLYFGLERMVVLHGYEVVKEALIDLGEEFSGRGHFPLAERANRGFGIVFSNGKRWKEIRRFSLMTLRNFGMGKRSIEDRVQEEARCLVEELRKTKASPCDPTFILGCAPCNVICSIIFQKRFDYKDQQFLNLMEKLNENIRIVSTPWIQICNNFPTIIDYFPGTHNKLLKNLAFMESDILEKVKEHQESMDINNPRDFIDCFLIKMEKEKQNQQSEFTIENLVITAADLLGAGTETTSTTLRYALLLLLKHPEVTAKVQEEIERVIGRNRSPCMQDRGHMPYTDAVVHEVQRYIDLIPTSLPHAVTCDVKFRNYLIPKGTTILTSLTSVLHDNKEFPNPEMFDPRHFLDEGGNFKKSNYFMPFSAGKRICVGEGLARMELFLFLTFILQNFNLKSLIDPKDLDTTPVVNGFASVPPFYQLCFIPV
Sequence of Cytochrome P450 2C9 (P11712 whole entry): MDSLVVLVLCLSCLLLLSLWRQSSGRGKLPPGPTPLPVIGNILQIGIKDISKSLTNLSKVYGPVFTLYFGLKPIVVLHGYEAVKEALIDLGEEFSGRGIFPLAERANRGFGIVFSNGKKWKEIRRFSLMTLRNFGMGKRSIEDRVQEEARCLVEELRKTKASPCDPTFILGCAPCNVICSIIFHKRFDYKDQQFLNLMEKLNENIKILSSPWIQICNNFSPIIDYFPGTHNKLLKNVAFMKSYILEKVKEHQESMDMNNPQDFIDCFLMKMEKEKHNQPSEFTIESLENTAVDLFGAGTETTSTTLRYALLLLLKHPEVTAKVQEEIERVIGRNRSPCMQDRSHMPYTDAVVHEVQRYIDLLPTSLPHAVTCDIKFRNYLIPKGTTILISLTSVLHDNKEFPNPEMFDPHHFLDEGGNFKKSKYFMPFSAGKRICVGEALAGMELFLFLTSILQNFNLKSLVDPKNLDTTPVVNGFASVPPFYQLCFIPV

## O=C(Cc1ccccc1F)Nc1ccc(S(=O)(=O)N2CCCCC2)cc1
[1]
  EC50: > 195 µM (not active)

## FC(F)(F)c1cc(-c2ccc(Cl)cc2)nc(NCc2cccnc2)n1
[2]
  AC50: 7.33 µM (active)
[3]
  EC50: 1.01 µM (active)
[4]
  EC50: > 60 µM (not active)

## CCOC(=O)C1(S(=O)(=O)c2ccccc2)CCN(Cc2ccccc2)CC1
[5]
  AC50: 11.2 µM (inconclusive)

## COCCNC(=O)CN(C(=O)CCC(=O)Nc1ccccn1)c1ccc(C)cc1
[2]
  AC50: > 195 µM (inactive)

## Cc1cccc(-c2nnc(SCc3ccccc3)o2)c1
[5]
  AC50: 39.8 µM (inconclusive)

## C=CCNc1nnnc2c1sc1nc(N3CCOCC3)c3c(c12)CCCC3
[1]
  EC50: > 195 µM (not active)

## CC(=O)NC1=NN(C(C)=O)C(c2ccccn2)S1 (stereo not drawn)
[1]
  EC50: > 195 µM (not active)

## CN(C)C(=O)c1ccc(-c2nc(Nc3ccncc3)c3ccccc3n2)cc1
[6]
  AC50: 39.8 µM (inconclusive)

## O=S(=O)(Nc1ccc(-c2nnc(SCc3ccc(Cl)cc3)o2)cc1)c1ccccc1
[2]
  AC50: 3.31 µM (active)

## COc1ccc(-n2c(=O)c(-c3cc(F)cc(F)c3)nc3cncnc32)cc1
[6]
  AC50: 10 µM (inconclusive)

## COc1ccc(NC(=O)N2CCCC3(CCN(C(=O)Oc4ccccc4)CC3)C2)cc1
[5]
  AC50: 1.58 µM (inconclusive)

## Cc1ccc(N2CCN(C(=O)c3cn(CC4CCCCC4)nn3)C(C)C2)cc1 (stereo not drawn)
[7]
  EC50: 0.418 µM (active)
[8]
  EC50: 2.49 µM (active)

## O=C1NCCN1Cc1cccc(Cl)c1
[5]
  AC50: 2.24 µM (inconclusive)
[6]
  AC50: 2.24 µM (inconclusive)

## Cc1ccc(C)c(-c2csc(N)c2C(=O)OC(C)C)c1
[2]
  AC50: 6.66 µM (active)
[9]
  EC50: 9.04 µM (active)
[10]
  EC50: > 150 µM (not active)
[11]
  EC50: 17 µM (active)

## O=c1c(Cl)c(NCc2ccccc2)cnn1C12CC3CC(CC(C3)C1)C2
[2]
  AC50: 1.16 µM (active)

## CCOC(=O)c1ccc(N[S+]([O-])C23CC4CC(CC(C4)C2)C3)cc1 (stereo not drawn)
[7]
  EC50: > 120 µM (not active)
[12]
  EC50: > 120 µM (not active)
[8]
  EC50: > 120 µM (not active)

## O=C(c1cnsn1)N1CCC(CO)(Cc2cccc(F)c2)CC1
[7]
  EC50: 15.2 µM (active)
[12]
  EC50: 75.8 µM (active)
[8]
  EC50: 14.8 µM (active)

## COc1cc(SC)ccc1C(=O)OCC(=O)NC1CCCC1
[1]
  EC50: > 195 µM (not active)

## CN1CCc2ccccc2[C@@H]1Cc1ccccc1NC(=O)c1sc2ccccc2c1Cl
[5]
  AC50: 3.16 µM (inconclusive)
[13]
  AC50: 5.01 µM (inconclusive)

## C[C@](N)(COP(=O)(O)O)C(=O)O
[6]
  AC50: 25.1 µM (inconclusive)
[13]
  AC50: 31.6 µM (inconclusive)

## COc1cc(O)c2c(O)c3c(c4c2c1[C@@]1(C4)C(C)=CCCC1(C)C)[C@H](O)[C@@]1(O)CC(O)=C(C(N)=O)C(=O)[C@]1(O)C3=O
[5]
  AC50: 3.16 µM (inconclusive)
[13]
  AC50: 3.16 µM (inconclusive)

## NNC(=O)CNC(=O)CNS(=O)(=O)c1ccccc1
[1]
  EC50: > 195 µM (not active)

## Cn1c(S)nnc1CCCOc1ccc(Cl)cc1Cl
[7]
  EC50: 22.5 µM (active)
[12]
  EC50: 7.51 µM (active)
[8]
  EC50: > 120 µM (not active)

## Cc1ccc(C2=NCCn3c2c2ccc(C(F)(F)F)cc2[n+]3[O-])cc1
[1]
  EC50: > 195 µM (not active)

## COc1ccc(-n2c(S)nnc2COc2cccc(C)c2)cc1
[1]
  EC50: > 195 µM (not active)

## CCOC(=O)C1=C(O)C(Nc2nccs2)(C(F)(F)F)N=C1C (stereo not drawn)
[5]
  AC50: 35.5 µM (inconclusive)

## COc1ccc(NC(=O)Nc2ccc([N+](=O)[O-])cc2)cn1
[14]
  IC50: 42.1 µM (inactive)

## CC(C)(C)c1ccc(Cn2nnc3c(O)nc(C4CCCN(C(=O)c5cccs5)C4)nc32)cc1 (stereo not drawn)
[2]
  AC50: 10.6 µM (active)

## CCOc1c2ccc(C(=O)NCCc3cccs3)cc2nn1CC
[5]
  AC50: 28.2 µM (inconclusive)
[7]
  EC50: 1.51 µM (active)
[12]
  EC50: > 120 µM (not active)
[6]
  AC50: 4.47 µM (inconclusive)

## Clc1ccc(COn2ccnc2)cc1Cl
[7]
  EC50: > 120 µM (not active)
[12]
  EC50: > 120 µM (not active)
[8]
  EC50: > 120 µM (not active)

## CCn1ccc(C(=O)NC2=C(C#N)CCC2)n1
[5]
  AC50: 14.1 µM (inconclusive)

## CC(C)Sc1nc2sccc2c(=O)n1-c1ccccc1
[1]
  EC50: > 195 µM (not active)

## C=CCn1c(CCCNC(=O)C(C)(C)C)nc2ccccc21
[1]
  EC50: > 195 µM (not active)

## COc1ccc(-n2c(=O)c(C)nc3cncnc32)cc1
[5]
  AC50: 39.8 µM (inconclusive)

## COC(=O)c1c(NC(=O)c2ccc(C)c(S(=O)(=O)Nc3ccccc3C)c2)sc2c1CCCC2
[2]
  AC50: 0.875 µM (active)

## COC(=O)[C@@H]1C[C@H]1[C@@H](NC(=O)c1ccccc1)c1ccccc1
[5]
  AC50: 39.8 µM (inconclusive)

## O=S(=O)(c1ccccc1)c1c[nH]c(O)n1
[1]
  EC50: > 195 µM (not active)

## CCCOc1ccc(/C=N/Nc2cccc([N+](=O)[O-])c2)c(O)c1
[2]
  AC50: 1.76 µM (active)

## CCN1CCN(c2cc3c(nn2)Oc2ccccc2N3C)CC1
[7]
  EC50: 44.6 µM (active)
[12]
  EC50: 0.573 µM (active)
[8]
  EC50: 11.4 µM (active)

## O=C(c1ccccn1)c1cc2ccccc2n1S(=O)(=O)c1ccccc1
[7]
  EC50: 55.9 µM (active)
[8]
  EC50: 20.5 µM (active)

## Cc1cc(NC(=O)c2ccc3nc(C)sc3c2)no1
[1]
  EC50: 0.167 µM (active)

## CC(=O)c1ccc(-n2nnnc2SCC(=O)Nc2cccc(NC(=O)c3ccco3)c2)cc1
[5]
  AC50: 7.08 µM (inconclusive)

## COc1ccc(/C=N/Nc2nc(C)cc(O)n2)cc1OC
[1]
  EC50: 29.8 µM (active)

## Cc1ccc(C2N(c3ccccc3)C(=S)N3CCCN23)cc1 (stereo not drawn)
[1]
  EC50: > 195 µM (not active)
